Measured values: patent US5739359A, “Methods for preparing 1-deoxy paclitaxels” (Virginia Tech Intellectual Properties, Inc., priority 1997, dated 1998)
pIC50: −log10 of the molar value.

How the values were obtained:
[1] = test system: human colon carcinoma cells HCT-116; assay: MTS in vitro cytotoxicity assay, HCT-116; format: cell-based; settings: 72 h exposure
Procedure: Cells were plated at 4,000 cell/well in 96 well microliter plates and 24 hours later drugs were added and serial diluted. […] The greater the absorbance the greater the number of live cells.

[2] = test system: paclitaxel-resistant cell line HCT116/VM46; assay: cells; format: cell-based; settings: Homo sapiens, HCT-116/VM46, 72 h, read-out: Cytotoxicity Assay IC50
Procedure: Cytotoxicity was assessed in HCT-116 and line HCT116/VM46 human colon carcinoma cells by MTS (3-(4,5-dimethylthiazol-2-yl)-5-(3-carboxymethoxyphenyl)-2-(4-sulphenyl)-2H-tetrazolium, inner salt) assay as reported in T. L. Riss, el. al., "Comparison of MTT, XTT, and a novel tetrazolium compound MTS for in vitro proliferation and chemosensitivity assays.," Mol. Biol. Cell 3 (Suppl.):184a, 1992. Cells were plated at 4,000 cell/well in 96 well microliter plates and 24 hours later drugs were added and serial diluted. The cells were incubated at 37° for 72 hours at which time the tetrazolium dye, MTS at 333 μg/ml (final concentration), in combination with the electron coupling agent phenazine methosulfate at 25 μM (final concentration) was added. A dehydrogenase enzyme in live cells reduces the MTS to a form that absorbs light at […] which can be quantitated spectrophotometrically. The greater the absorbance the greater the number of live cells. The results are expressed as an IC50, which is the drug concentration required to inhibit cell proliferation (i.e. absorbance at 450 nm) to 50% of that of untreated control cells. The IC50 values for compounds evaluated in this assay are evaluated in Table I.

[3] = in vivo animal models; cited from earlier work

SMILES | pIC50 [1] | pIC50 [2] | antitumor activity (in words) [3]
CC(=O)O[C@@]12CO[C@@H]1C[C@@H]1OC(c3ccccc3)O[C@H]3[C@H](O)C4=C(C)[C@@H](OC(=O)[C@H](O)[C@@H](NC(=O)OC(C)(C)C)c5ccccc5)C[C@@H]([C@@H](OC(=O)c5ccccc5)[C@H]2[C@@]13C)C4(C)C (stereo partly drawn) [Compound 7b, 1-deoxy-9(R)-dihydrodocetaxel 7,9-benzylidene acetal] | 10.98 | 10.53 | –
CC(=O)O[C@H]1C(=O)[C@@]2(C)[C@H]([C@H](OC(=O)c3ccccc3)[C@]3(O)C[C@H](OC(=O)[C@H](O)[C@@H](NC(=O)c4ccccc4)c4ccccc4)C(C)=C1C3(C)C)[C@]1(OC(C)=O)CO[C@@H]1C[C@@H]2O [paclitaxel] | – | 9.65 | excellent antitumor activity
CC(=O)O[C@@H]1C2=C(C)[C@@H](OC(=O)[C@H](O)[C@@H](NC(=O)OC(C)(C)C)c3ccccc3)C[C@@H]([C@@H](OC(=O)c3ccccc3)[C@@H]3[C@]4(OC(C)=O)CO[C@@H]4C[C@H](OC(C)=O)[C@@]3(C)[C@H]1OC(C)=O)C2(C)C [Compound 7c, 7,9,10-triacetyl-1-deoxy-9(R)-dihydrodocetaxel] | – | 10.66 | –
CC(=O)O[C@@]12CO[C@@H]1C[C@@H]1OC(C)(C)O[C@H]3[C@H](O)C4=C(C)[C@@H](OC(=O)[C@H](O)[C@@H](NC(=O)c5ccccc5)c5ccccc5)C[C@@H]([C@@H](OC(=O)c5ccccc5)[C@H]2[C@@]13C)C4(C)C [Compound 7a, 10-Deacetyl-1-deoxy-9(R)-dihydropaclitaxel 7,9-acetonide] | – | 10.94 | –
